According to the supplement of paper PMC11451515:

System: P12-Ichikawa
Assay: cell viability relative to DMSO control; higher = less cytotoxic
Settings: 48 h
Outline: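 In 1536-well plates, 5 μl of leukemia cells were seeded per well: 500 cells/well for NOMO1 or SEM and 1000 cells/well for P12-Ichikawa. Each line had first been adapted for at least four passages in each medium. Library compounds in DMSO were pin-dosed at 11 threefold concentrations between 47 μM and 0.79 nM, and CellTiter-Glo One luminescence was read after 48 h at 37°C. Viability is a per-plate percentage relative to DMSO wells, with cell-free wells as background.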

[1] = HPLM + 10% dialyzed FBS, 0.000781 µM
[2] = HPLM + 10% dialyzed FBS, 0.00234 µM
[3] = HPLM + 10% dialyzed FBS, 0.00702 µM
[4] = HPLM + 10% dialyzed FBS, 0.0211 µM
[5] = HPLM + 10% dialyzed FBS, 0.0632 µM
[6] = HPLM + 10% dialyzed FBS, 0.19 µM
[7] = HPLM + 10% dialyzed FBS, 0.569 µM
[8] = HPLM + 10% dialyzed FBS, 1.71 µM
[9] = HPLM + 10% dialyzed FBS, 5.12 µM
[10] = HPLM + 10% dialyzed FBS, 15.4 µM
[11] = HPLM + 10% dialyzed FBS, 46.1 µM
[12] = RPMI 5 mM glucose + 10% FBS, 0.000781 µM
[13] = RPMI 5 mM glucose + 10% FBS, 0.00234 µM
[14] = RPMI 5 mM glucose + 10% FBS, 0.00702 µM
[15] = RPMI 5 mM glucose + 10% FBS, 0.0211 µM
[16] = RPMI 5 mM glucose + 10% FBS, 0.0632 µM
[17] = RPMI 5 mM glucose + 10% FBS, 0.19 µM
[18] = RPMI 5 mM glucose + 10% FBS, 0.569 µM
[19] = RPMI 5 mM glucose + 10% FBS, 1.71 µM
[20] = RPMI 5 mM glucose + 10% FBS, 5.12 µM
[21] = RPMI 5 mM glucose + 10% FBS, 15.4 µM
[22] = RPMI 5 mM glucose + 10% FBS, 46.1 µM
[23] = RPMI 5 mM glucose + 10% dialyzed FBS, 0.000781 µM
[24] = RPMI 5 mM glucose + 10% dialyzed FBS, 0.00234 µM
[25] = RPMI 5 mM glucose + 10% dialyzed FBS, 0.00702 µM
[26] = RPMI 5 mM glucose + 10% dialyzed FBS, 0.0211 µM
[27] = RPMI 5 mM glucose + 10% dialyzed FBS, 0.0632 µM
[28] = RPMI 5 mM glucose + 10% dialyzed FBS, 0.19 µM
[29] = RPMI 5 mM glucose + 10% dialyzed FBS, 0.569 µM
[30] = RPMI 5 mM glucose + 10% dialyzed FBS, 1.71 µM
[31] = RPMI 5 mM glucose + 10% dialyzed FBS, 5.12 µM
[32] = RPMI 5 mM glucose + 10% dialyzed FBS, 15.4 µM
[33] = RPMI 5 mM glucose + 10% dialyzed FBS, 46.1 µM

| SMILES | cell viability [1] | cell viability [2] | cell viability [3] | cell viability [4] | cell viability [5] | cell viability [6] | cell viability [7] | cell viability [8] | cell viability [9] | cell viability [10] | cell viability [11] | cell viability [12] | cell viability [13] | cell viability [14] | cell viability [15] | cell viability [16] | cell viability [17] | cell viability [18] | cell viability [19] | cell viability [20] | cell viability [21] | cell viability [22] | cell viability [23] | cell viability [24] | cell viability [25] | cell viability [26] | cell viability [27] | cell viability [28] | cell viability [29] | cell viability [30] | cell viability [31] | cell viability [32] | cell viability [33] |
| --- | --- | --- | --- | --- | --- | --- | --- | --- | --- | --- | --- | --- | --- | --- | --- | --- | --- | --- | --- | --- | --- | --- | --- | --- | --- | --- | --- | --- | --- | --- | --- | --- | --- |
| CC(C)C1NC(=O)C(NC(=O)C2=C3\N=C\4/C(=C(C)\C(=O)\C(=C4C(=O)NC5C(C)OC(=O)C(C(C)C)N(C)C(=O)CN(C)C(=O)C6CCCN6C(=O)C(NC5=O)C(C)C)N)OC3=C(C)C=C2)C(C)OC(=O)C(C(C)C)N(C)C(=O)CN(C)C(=O)C7CCCN7C1=O (configuration not stated) | 8.89% | 7.61% | 7.74% | 7.98% | 8.48% | 7.48% | 8.02% | 5.74% | 3.17% | 4.3% | 1.52% | 7.97% | 8.99% | 7.91% | 6.03% | 5.96% | 6.1% | 5.29% | 3.26% | 1.15% | 2.04% | 1.27% | 9.93% | 10.6% | 9.2% | 10.8% | 7.89% | 8.14% | 8.28% | 7.16% | 6.45% | 4.57% | 3.47% |
| Cc1c(C)n(Cc2ccc(-c3ccccc3C(=O)O)cc2)c2ccc(C(=O)N[C@@H](C)c3ccc([N+](=O)[O-])cc3)cc12 | 103% | 105% | 102% | 107% | 103% | 109% | 109% | 120% | 114% | 25.8% | 33.6% | 101% | 104% | 102% | 96.8% | 112% | 110% | 114% | 102% | 113% | 25.2% | 25.1% | 99.6% | 97.5% | 106% | 105% | 106% | 101% | 113% | 108% | 114% | 25.5% | 20% |
| CC(C)(C)OC(=O)N[C@H]1CCCCC/C=C\[C@@H]2C[C@@]2(C(=O)N[S+](=O)([O-])C2CC2)NC(=O)[C@@H]2C[C@@H](OC(=O)N3Cc4cccc(F)c4C3)CN2C1=O | 108% | 114% | 108% | 109% | 112% | 114% | 115% | 111% | 108% | 104% | 87.1% | 110% | 108% | 110% | 108% | 114% | 112% | 125% | 114% | 113% | 104% | 82.1% | 95.2% | 104% | 117% | 94.3% | 105% | 104% | 112% | 106% | 94.2% | 89.3% | 80.5% |
| CC1(C)O[C@@H]2C[C@H]3[C@@H]4C[C@H](F)C5=CC(=O)C=C[C@]5(C)[C@@]4(F)[C@@H](O)C[C@]3(C)[C@]2(C(=O)CO)O1 | 107% | 110% | 99.4% | 83.8% | 71.1% | 56.4% | 69.1% | 60.7% | 52.6% | 62.9% | 53% | 106% | 99.4% | 96.4% | 78.7% | 55.4% | 53.2% | 50.2% | 53% | 51.7% | 46.4% | 43.5% | 74.9% | 103% | 94.6% | 67.9% | 50.8% | 46.7% | 47.6% | 42.5% | 40.6% | 36.8% | 30.4% |
| CC[S+](=O)([O-])c1cccc(-c2cc(C(=O)NC3CCN(C)CC3)c(C)c3[nH]c4ncc(C)cc4c23)c1 | 121% | 122% | 123% | 128% | 123% | 112% | 15.7% | 19.5% | 19% | 26.9% | 34.9% | – | – | – | – | – | – | – | – | – | – | – | – | – | – | – | – | – | – | – | – | – | – |
| COc1ccc([C@@H]2CC(=O)c3c(O)cc(O[C@@H]4O[C@H](CO[C@@H]5O[C@@H](C)[C@H](O)[C@@H](O)[C@H]5O)[C@@H](O)[C@H](O)[C@H]4O)cc3O2)cc1O | 107% | 109% | 106% | 114% | 120% | 124% | 121% | 118% | 115% | 114% | 116% | 94.2% | 104% | 109% | 93.7% | 107% | 115% | 111% | 119% | 110% | 105% | 103% | 97.3% | 117% | 114% | 111% | 123% | 116% | 126% | 119% | 122% | 111% | 114% |
| CC(C)c1nc(CN(C)C(=O)N[C@H](C(=O)N[C@@H](Cc2ccccc2)C[C@H](O)[C@H](Cc2ccccc2)NC(=O)OCc2cncs2)C(C)C)cs1 | 91.9% | 87.4% | 87.2% | 102% | 103% | 92.1% | 78.4% | 78.2% | 83.9% | 85.8% | 89.6% | 87.2% | 86.5% | 87.7% | 84.2% | 92.4% | 92.6% | 77.2% | 90.1% | 81.5% | 79.8% | 88.2% | 85.3% | 79.8% | 89.4% | 83.4% | 92.6% | 87.2% | 70.8% | 82.2% | 77.9% | 82.8% | 82.3% |
| COc1cc(OC2CCN(C)CC2)ccc1Nc1ncc2c(n1)n(C1CCCC1)c(=O)n2C | 83.2% | 85.4% | 83% | 91.2% | 91.6% | 97.9% | 88.5% | 92.8% | 99.6% | 86.2% | 2.55% | 74.9% | 93.8% | 82.7% | 88.2% | 85.8% | 81.4% | 91.6% | 81.3% | 87.2% | 69.9% | 5.17% | 76.7% | 80.6% | 76.3% | 85.5% | 86.1% | 80.4% | 86.5% | 83% | 85.6% | 61.4% | 0.821% |
| COCC1(CO)C(=O)C2CCN1CC2 (configuration not stated) | 90.6% | 103% | 105% | 112% | 108% | 109% | 85.3% | 103% | 81.9% | 37.7% | 4.42% | 92.7% | 109% | 109% | 110% | 106% | 117% | 95.2% | 104% | 77.8% | 53.6% | 6.98% | 103% | 104% | 109% | 115% | 107% | 112% | 96.4% | 101% | 81.8% | 64.2% | 23% |
| CN(C)C1CCN(C(=O)c2ccc(NC(=O)Nc3nc(N4CCOCC4)nc(N4CCOCC4)n3)cc2)CC1 | 91.2% | 92% | 101% | 91.7% | 75.9% | 76% | 66.4% | 64.2% | 57.8% | 34.3% | 20.9% | 85.6% | 84.9% | 82.6% | 73% | 56% | 58.5% | 48.2% | 42.2% | 35.4% | 34.7% | 22.9% | 83.7% | 85.5% | 80.6% | 78.6% | 61.6% | 56.2% | 47.4% | 43.4% | 41.5% | 34% | 20.1% |
| CCc1ccc(CCOc2ccc(CC3SC(=O)NC3=O)cc2)nc1 (configuration not stated) | 121% | 118% | 123% | 117% | 116% | 113% | 113% | 113% | 108% | 108% | 108% | 118% | 112% | 118% | 115% | 117% | 112% | 127% | 119% | 109% | 118% | 119% | 123% | 118% | 129% | 120% | 126% | 116% | 114% | 121% | 120% | 111% | 100% |
| N[S+]([O-])(=O)C1=C(Cl)C=C2\N=C/N[S+]([O-])(=O)C2=C1 | 101% | 100% | 102% | 97.5% | 106% | 108% | 108% | 119% | 110% | 106% | 109% | 97.3% | 106% | 107% | 113% | 117% | 114% | 112% | 122% | 115% | 120% | 122% | 101% | 96.2% | 111% | 115% | 114% | 110% | 114% | 100% | 115% | 115% | 109% |
| CC(C)c1noc(N2CCC(COc3ccc(-c4ccc([S+](C)(=O)[O-])cc4)nc3)CC2)n1 | 117% | 117% | 113% | 120% | 122% | 114% | 112% | 106% | 103% | 98.7% | 103% | 118% | 120% | 119% | 112% | 119% | 109% | 110% | 118% | 111% | 113% | 101% | 117% | 105% | 120% | 108% | 114% | 110% | 106% | 110% | 100% | 112% | 97.4% |
